The source made the active and inactive calls.
Tests used:
[1] = target: T1, Nuclear factor erythroid 2-related factor 2 (Homo sapiens) (UniProt Q16236); assay: Induction of nuclear translocation of NRF2 in human LNCaP cells at 5 uM after 6 hrs by Western blotting; type: functional, cell-based
T1 sequence (whole entry): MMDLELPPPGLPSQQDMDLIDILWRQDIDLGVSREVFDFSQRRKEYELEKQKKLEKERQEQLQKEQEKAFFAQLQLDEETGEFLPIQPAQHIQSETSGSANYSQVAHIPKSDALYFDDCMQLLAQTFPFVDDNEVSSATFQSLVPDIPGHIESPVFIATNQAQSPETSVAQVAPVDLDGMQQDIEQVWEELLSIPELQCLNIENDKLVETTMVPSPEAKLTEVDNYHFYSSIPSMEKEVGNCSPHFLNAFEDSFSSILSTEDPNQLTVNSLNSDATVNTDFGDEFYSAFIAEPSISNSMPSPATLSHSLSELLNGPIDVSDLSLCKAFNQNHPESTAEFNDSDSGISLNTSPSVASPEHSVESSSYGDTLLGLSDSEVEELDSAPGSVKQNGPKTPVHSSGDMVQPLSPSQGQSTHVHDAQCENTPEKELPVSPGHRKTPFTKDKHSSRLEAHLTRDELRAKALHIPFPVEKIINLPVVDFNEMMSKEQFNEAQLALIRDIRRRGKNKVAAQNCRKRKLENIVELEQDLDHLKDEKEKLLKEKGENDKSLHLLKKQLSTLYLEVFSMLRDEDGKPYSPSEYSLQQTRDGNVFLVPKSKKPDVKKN

[2] = target: T1, Nuclear factor erythroid 2-related factor 2 (Homo sapiens); assay: Induction of NRF2-mediated ARE enhancer activity in hormone-refractory human PC3 cells transfected with pGL3-ARE-TK-luc at 5 uM after 24 hrs by luciferase assay relative to control; type: functional, cell-based; settings: PC-3
[3] = target: RAC-alpha serine/threonine-protein kinase (Homo sapiens) (UniProt P31749); assay: Effect on c-Akt phosphorylation in human LNCAP cells; type: cell-based
LNCaP [4] = assay: Decrease in cyclin D1 expression in human LNCAP cells at 5 uM after 48 hrs by Western blotting; type: functional, cell-based
[5] = target: T1, Nuclear factor erythroid 2-related factor 2 (Homo sapiens); assay: Increase of NRF2-mediated HO-1 expression in human LNCaP cells after 24 hrs by Western blotting; type: functional, cell-based
[6] = target: T1, Nuclear factor erythroid 2-related factor 2 (Homo sapiens); assay: Increase of NRF2-mediated HO-1 expression in hormone-refractory human MCF7 cells after 24 hrs by Western blotting; type: functional, cell-based
LNCaP [7] = assay: Effect on p21 expression in human LNCAP cells at 5 uM after 48 hrs by Western blotting; type: functional, cell-based
[8] = target: T1, Nuclear factor erythroid 2-related factor 2 (Homo sapiens); assay: Increase of NRF2-mediated HO-1 expression in human LNCaP cells at 5 uM by Western blotting; type: functional, cell-based; settings: TDE = time-dependent effect
LNCaP [9] = assay: Induction of apoptosis in human LNCAP cells at 5 uM by Hoechst 33342 staining; type: functional, cell-based
[10] = target: T1, Nuclear factor erythroid 2-related factor 2 (Homo sapiens); assay: Increase of NRF2-mediated NQO-1 expression in hormone-refractory human DU145 cells at 5 uM after 24 hrs by Western blotting; type: functional, cell-based; settings: DU-145
LNCaP [11] = assay: Growth inhibition of human LNCAP cells transfected with HO-1 siRNA at 5 uM after 72 hrs by trypan blue dye exclusion assay; type: functional, cell-based
[12] = target: T1, Nuclear factor erythroid 2-related factor 2 (Homo sapiens); assay: Increase of NRF2-mediated HO-1 expression in human LNCaP cells at 5 uM after 24 hrs by Western blotting; type: functional, cell-based
LNCaP [13] = assay: Antioxidant activity in human LNCAP cells assessed as decrease in intracellular ROS level at 5 uM after 1 hr by fluorescence microplate reader assay; type: functional, cell-based
[14] = target: T1, Nuclear factor erythroid 2-related factor 2 (Homo sapiens); assay: Induction of NRF2-mediated ARE enhancer activity in hormone-refractory human DU145 cells transfected with pGL3-ARE-TK-luc at 5 uM after 24 hrs by luciferase assay relative to control; type: functional, cell-based; settings: DU-145
LNCaP [15] = assay: Antioxidant activity in human LNCAP cells assessed as decrease in intracellular ROS level at 5 uM after 5 mins by fluorescence microplate reader assay; type: functional, cell-based
[16] = target: T1, Nuclear factor erythroid 2-related factor 2 (Homo sapiens); assay: Increase of NRF2-mediated HO-1 expression in hormone-refractory human PC3 cells at 5 uM after 24 hrs by Western blotting; type: functional, cell-based; settings: PC-3
[17] = target: T1, Nuclear factor erythroid 2-related factor 2 (Homo sapiens); assay: Increase of NRF2-mediated NQO-1 expression in human LNCaP cells at 5 uM after 24 hrs by Western blotting; type: functional, cell-based
[18] = target: T1, Nuclear factor erythroid 2-related factor 2 (Homo sapiens); assay: Increase of NRF2-mediated NQO-1 expression in hormone-refractory human PC3 cells at 5 uM after 24 hrs by Western blotting; type: functional, cell-based; settings: PC-3
[19] = target: c-Jun N-terminal kinase, JNK (Homo sapiens) (UniProt P45983+P53779+P45984); assay: Effect on JNK phosphorylation in human LNCAP cells; type: cell-based
LNCaP [20] = assay: Induction of morphological changes in human LNCAP cells assessed as appearance of flattened and enlarged cells at 5 uM after 24 to 48 hrs; type: functional, cell-based
[21] = target: T1, Nuclear factor erythroid 2-related factor 2 (Homo sapiens); assay: Increase of NRF2-mediated HO-1 expression in hormone-refractory human DU145 cells at 5 uM after 24 hrs by Western blotting; type: functional, cell-based; settings: DU-145
[22] = target: MAP kinase p38 (Homo sapiens) (UniProt O15264+Q15759+Q16539+P53778); assay: Effect on p38 phosphorylation in human LNCAP cells; type: cell-based
LNCaP [23] = assay: Decrease in cyclin B1 expression in human LNCAP cells at 5 uM after 48 hrs by Western blotting; type: functional, cell-based
[24] = target: T1, Nuclear factor erythroid 2-related factor 2 (Homo sapiens); assay: Induction of nuclear translocation of NRF2 in human LNCaP cells at 5 uM after 1 hr by Western blotting; type: functional, cell-based
LNCaP [25] = assay: Induction of NRF2 dominant-negative mutant-mediated ARE enhancer activity in human LNCaP cells transfected with pGL3-ARE-TK-luc at 5 uM after 24 hrs by luciferase assay relative to control; type: cell-based
LNCaP [26] = assay: Growth inhibition of human LNCAP cells at 5 uM after 48 hrs by trypan blue dye exclusion assay in presence of 5 uM HO-1 inhibitor Zn-protoporphyrin; type: functional, cell-based
LNCaP [27] = assay: Antioxidant activity in human LNCAP cells assessed as decrease in intracellular ROS level at 5 uM after 12 hrs by fluorescence microplate reader assay; type: functional, cell-based
[28] = target: T1, Nuclear factor erythroid 2-related factor 2 (Homo sapiens); assay: Induction of NRF2-mediated ARE enhancer activity in hormone-sensitive human LNCaP cells transfected with pGL3-ARE-TK-luc at 5 uM after 24 hrs by luciferase assay relative to control; type: functional, cell-based
LNCaP [29] = assay: Cytotoxicity against human LNCAP cells assessed as reduction of cells count at 5 uM after 24 to 48 hrs by trypan blue dye exclusion assay; type: functional, cell-based
[30] = target: T1, Nuclear factor erythroid 2-related factor 2 (Homo sapiens); assay: Increase of NRF2-mediated HO-1 expression in hormone-refractory human MDA-MB-231 cells after 24 hrs by Western blotting; type: functional, cell-based
LNCaP [31] = assay: Effect on ERK phosphorylation in human LNCAP cells; type: cell-based
[32] = target: T1, Nuclear factor erythroid 2-related factor 2 (Homo sapiens); assay: Induction of nuclear translocation of NRF2 in human LNCaP cells at 5 uM after 0.5 hrs by Western blotting; type: functional, cell-based

Chain of RAC-alpha serine/threonine-protein kinase (Homo sapiens) (P31749 whole entry): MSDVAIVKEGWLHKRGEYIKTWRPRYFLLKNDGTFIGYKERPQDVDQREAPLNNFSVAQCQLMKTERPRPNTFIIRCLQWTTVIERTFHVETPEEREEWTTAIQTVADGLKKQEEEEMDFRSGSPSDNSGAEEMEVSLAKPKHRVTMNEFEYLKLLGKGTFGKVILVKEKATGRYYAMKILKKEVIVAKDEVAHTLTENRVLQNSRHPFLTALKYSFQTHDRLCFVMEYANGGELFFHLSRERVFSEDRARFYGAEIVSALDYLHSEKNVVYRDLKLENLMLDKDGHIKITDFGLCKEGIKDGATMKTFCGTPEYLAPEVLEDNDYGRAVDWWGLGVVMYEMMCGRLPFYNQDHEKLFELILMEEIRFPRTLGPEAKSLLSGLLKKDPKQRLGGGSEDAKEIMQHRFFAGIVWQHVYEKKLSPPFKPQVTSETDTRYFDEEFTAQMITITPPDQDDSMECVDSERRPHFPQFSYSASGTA

C[C@@H](O[Si](C)(C)C(C)(C)C)[C@H]1C(=O)N2/C(=N/C3CCCCC3)[Se]/C(=C/I)C[C@H]12
inactive: Activity [3] | Activity (LNCaP [7]) | Activity (LNCaP [9]) | Activity [19] | Activity [22] | Activity (LNCaP [25]) | Activity (LNCaP [31])
6: fold change (FC) [28]
active: Activity [1] | inhibition (LNCaP [4]) | Activity [5] Dose-dependent effect | Activity [6] | Activity [8] tde | Activity [10] | growth inhibition (GI) (LNCaP [11]) | Activity [12] | inhibition (LNCaP [13]) | inhibition (LNCaP [15]) | Activity [16] | Activity [17] | Activity [18] | Activity (LNCaP [20]) | Activity [21] | inhibition (LNCaP [23]) | Activity [24] | growth inhibition (GI) (LNCaP [26]) | inhibition (LNCaP [27]) | Activity (LNCaP [29]) | Activity [30]
< 2: fold change (FC) [2] | fold change (FC) [14]

C[C@@H](O[Si](C)(C)C(C)(C)C)[C@H]1C(=O)N2/C(=N/c3ccc4ccccc4c3)[Se]/C(=C/I)C[C@H]12
active: Activity [28]

C[C@@H](O[Si](C)(C)C(C)(C)C)[C@H]1C(=O)N2/C(=N/c3ccccc3)[Se]/C(=C/I)C[C@H]12
active: Activity [28]

C[C@@H](O[Si](C)(C)C(C)(C)C)[C@H]1C(=O)N2/C(=N/Cc3ccccc3)[Se]/C(=C/I)C[C@H]12
6: fold change (FC) [28]
inactive: Activity [3] | Activity (LNCaP [7]) | Activity (LNCaP [9]) | Activity [19] | Activity [22] | Activity (LNCaP [25]) | Activity (LNCaP [31])
active: Activity [1] | Activity [32] | inhibition (LNCaP [4]) | Activity [5] Dose-dependent effect | Activity [6] | Activity [8] tde | Activity [10] | growth inhibition (GI) (LNCaP [11]) | Activity [12] | inhibition (LNCaP [13]) | inhibition (LNCaP [15]) | Activity [16] | Activity [17] | Activity [18] | Activity (LNCaP [20]) | Activity [21] | inhibition (LNCaP [23]) | growth inhibition (GI) (LNCaP [26]) | inhibition (LNCaP [27]) | Activity (LNCaP [29]) | Activity [30]
< 2: fold change (FC) [2] | fold change (FC) [14]

— ChEMBL document CHEMBL1250530, “Identification of organoselenium compounds that possess chemopreventive properties in human prostate cancer LNCaP cells” (Bioorg Med Chem, 2010)
